Results as given in PMC2820511 (Journal of medicinal chemistry, 2010).

What was measured:
MtMetAP1c = MtMetAP1c (Mycobacterium tuberculosis, UniProt P9WK19); assay: Inhibition of purified MtMetAP1c apoenzyme activated by divalent metals; type: biochemical; settings: apoenzyme activated by Co(II), Ni(II), Mn(II) or Fe(II)
[1] = system: MtMetAP1c-complemented E. coli cells; assay: Inhibition of MtMetAP1c-complemented E. coli cell growth; settings: highest concentration (1 mM) tested

MtMetAP1c, sequence (P9WK19 whole entry, looked up): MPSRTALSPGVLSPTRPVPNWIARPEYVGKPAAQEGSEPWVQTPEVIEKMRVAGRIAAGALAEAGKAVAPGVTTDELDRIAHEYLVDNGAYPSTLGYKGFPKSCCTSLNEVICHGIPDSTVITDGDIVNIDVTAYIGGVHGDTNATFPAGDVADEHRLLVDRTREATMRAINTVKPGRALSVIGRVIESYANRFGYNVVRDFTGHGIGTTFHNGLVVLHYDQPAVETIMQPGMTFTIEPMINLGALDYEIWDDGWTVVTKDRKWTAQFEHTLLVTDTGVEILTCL

Row | Compound | metalloform selectivity of inhibition of purified MtMetAP1c (MtMetAP1c) | growth inhibition at the highest concentration tested [1]
1 | Cc1nc(-c2ccc(O)c(O)c2)cs1 [compound 1] | selective for the Fe(II) form | –
2 | O=C(O)c1ccc(-c2cc(Cl)ccc2Cl)o1 [compound 3] | selective for the Mn(II) form | no inhibition
3 | Nc1nnc(SCc2ccc(F)cc2)[nH]1 [compound 5] | – | no inhibition
4 | Cc1ccsc1-c1ccc(O)c(O)c1 [compound 2] | selective for the Fe(II) form | –
5 | Cc1ccc(CSc2nnc(N)[nH]2)cc1 [compound 6] | – | no inhibition
